This experiment has as its target Alpha-glucosidase MAL32 (Saccharomyces cerevisiae (strain ATCC 204508 / S288c), UniProt P38158). In words: In Vitro α-Glucosidase Inhibitory Assay. Conditions: pH 6.8. On the procedure:
The test compounds were dissolved in DMSO to prepare the required distributing concentration. α-Glucosidase inhibitory activity was assayed using 0.1 m phosphate buffer (pH 6.8) at 37°C. The enzyme (0.1 U/ml) in phosphate-buffered saline was incubated with various concentrations of test compounds at 37°C for 15 min. Then, 1.25 mm p-nitrophenyl α-D-glucopyranoside was added to the mixture as a substrate.After further incubation at 37°C for 30 min, the absorbance was measured spectrophotometrically at 405 nm. The sample solution was replaced by DMSO as a control. Acarbose was used as a positive control. All experiments were carried out in triplicates.
Sequence of Alpha-glucosidase MAL32 (P38158 whole entry): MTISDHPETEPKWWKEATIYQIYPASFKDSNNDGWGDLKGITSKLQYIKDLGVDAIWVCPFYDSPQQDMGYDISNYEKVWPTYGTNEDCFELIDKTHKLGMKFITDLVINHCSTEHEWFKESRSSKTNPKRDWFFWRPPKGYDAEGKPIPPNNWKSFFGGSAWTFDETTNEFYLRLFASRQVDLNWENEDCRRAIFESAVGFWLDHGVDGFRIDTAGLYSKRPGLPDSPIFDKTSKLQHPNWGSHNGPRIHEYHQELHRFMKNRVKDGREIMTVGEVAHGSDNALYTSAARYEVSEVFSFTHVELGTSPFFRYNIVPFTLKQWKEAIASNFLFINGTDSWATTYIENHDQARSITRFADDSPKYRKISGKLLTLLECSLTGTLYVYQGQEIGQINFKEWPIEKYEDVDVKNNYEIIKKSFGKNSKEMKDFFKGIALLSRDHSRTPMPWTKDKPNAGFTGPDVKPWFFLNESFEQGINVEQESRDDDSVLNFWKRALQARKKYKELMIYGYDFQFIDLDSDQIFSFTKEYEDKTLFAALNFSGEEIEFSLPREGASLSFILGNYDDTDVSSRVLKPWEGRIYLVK
As for `O=C(COc1ccc2ccc(=O)oc2c1)N/N=C1\C(=O)N(Cc2ccccc2F)c2ccc(Cl)cc21` [(Z)-N'-(5-chloro-1-(2-fluorobenzyl)-2-oxoindolin-3-ylidene)-2-((2-oxo-2H-chromen-7-yl)oxy)acetohydrazide (5p)], half-maximal inhibition (IC50) required 2.56 µM. The compound `O=C(COc1ccc2ccc(=O)oc2c1)N/N=C1\C(=O)N(Cc2ccccc2)c2ccccc21` [(Z)-N'-(1-benzyl-2-oxoindolin-3-ylidene)-2-((2-oxo-2H-chromen-7-yl)oxy)acetohydrazide (5i)] showed an IC50 of 14.1 µM.

Compound `O=C(COc1ccc2ccc(=O)oc2c1)N/N=C1\C(=O)N(Cc2ccccc2F)c2ccccc21` [(Z)-N'-(1-(2-fluorobenzyl)-2-oxoindolin-3-ylidene)-2-((2-oxo-2H-chromen-7-yl)oxy)acetohydrazide (5j)] registered an IC50 of 7.37 µM. In the case of `Cc1ccc2c(c1)/C(=N/NC(=O)COc1ccc3ccc(=O)oc3c1)C(=O)N2` [(Z)-N'-(5-methyl-2-oxoindolin-3-ylidene)-2-((2-oxo-2H-chromen-7-yl)oxy)acetohydrazide (5b)] it was 114 µM; in that of `O=C(COc1ccc2ccc(=O)oc2c1)N/N=C1\C(=O)Nc2ccccc21` [(Z)-2-((2-oxo-2H-chromen-7-yl)oxy)-N'-(2-oxoindolin-3-ylidene)acetohydrazide (5a)], 187 µM.

The compound `O=C(COc1ccc2ccc(=O)oc2c1)N/N=C1\C(=O)N(Cc2ccc(Br)cc2)c2ccccc21` [(Z)-N'-(1-(4-bromobenzyl)-2-oxoindolin-3-ylidene)-2-((2-oxo-2H-chromen-7-yl)oxy)acetohydrazide (5m)] had an IC50 of 4.07 µM.

For `O=C(COc1ccc2ccc(=O)oc2c1)N/N=C1\C(=O)N(Cc2ccccc2)c2ccc(Br)cc21` [(Z)-N'-(1-benzyl-5-bromo-2-oxoindolin-3-ylidene)-2-((2-oxo-2H-chromen-7-yl)oxy)acetohydrazide (5r)], the IC50 worked out at 4.48 µM.

Take `O=C(COc1ccc2ccc(=O)oc2c1)N/N=C1\C(=O)Nc2ccc([N+](=O)[O-])cc21` [(Z)-N'-(5-nitro-2-oxoindolin-3-ylidene)-2-((2-oxo-2H-chromen-7-yl)oxy)acetohydrazide (5g)]: 9.47 µM corresponded to half-maximal inhibition (IC50). `Cc1ccc2c(c1)/C(=N/NC(=O)COc1ccc3ccc(=O)oc3c1)C(=O)N2Cc1cccc(F)c1` [(Z)-N'-(1-(3-fluorobenzyl)-5-methyl-2-oxoindolin-3-ylidene)-2-((2-oxo-2H-chromen-7-yl)oxy)acetohydrazide (5o)] had an IC50 of 77.8 µM.

For the compound `O=C(COc1ccc2ccc(=O)oc2c1)N/N=C1\C(=O)N(Cc2cccc(F)c2)c2ccc(Cl)cc21` [(Z)-N'-(5-chloro-1-(3-fluorobenzyl)-2-oxoindolin-3-ylidene)-2-((2-oxo-2H-chromen-7-yl)oxy)acetohydrazide (5q)], half-maximal inhibition (IC50) was put at 2.88 µM. The result for `O=C(COc1ccc2ccc(=O)oc2c1)N/N=C1\C(=O)N(Cc2ccccc2Cl)c2ccc(Br)cc21` [(Z)-N'-(5-bromo-1-(2-chlorobenzyl)-2-oxoindolin-3-ylidene)-2-((2-oxo-2H-chromen-7-yl)oxy)acetohydrazide (5s)] reads 2.85 µM.

Turning to `O=C(COc1ccc2ccc(=O)oc2c1)N/N=C1\C(=O)N(Cc2cccc(F)c2)c2ccccc21` [(Z)-N'-(1-(3-fluorobenzyl)-2-oxoindolin-3-ylidene)-2-((2-oxo-2H-chromen-7-yl)oxy)acetohydrazide (5k)], the midpoint of inhibition, the IC50, lay at 9.33 µM. Consider `Cc1cc(C)c2c(c1)/C(=N/NC(=O)COc1ccc3ccc(=O)oc3c1)C(=O)N2` [(Z)-N'-(5,7-dimethyl-2-oxoindolin-3-ylidene)-2-((2-oxo-2H-chromen-7-yl)oxy)acetohydrazide (5c)], for which the IC50 worked out at 197 µM.

With `Cc1ccc2c(c1)/C(=N/NC(=O)COc1ccc3ccc(=O)oc3c1)C(=O)N2Cc1ccccc1F` [(Z)-N'-(1-(2-fluorobenzyl)-5-methyl-2-oxoindolin-3-ylidene)-2-((2-oxo-2H-chromen-7-yl)oxy)acetohydrazide (5n)], 66.8 µM corresponded to half-maximal inhibition (IC50). Compound `O=C(COc1ccc2ccc(=O)oc2c1)N/N=C1\C(=O)Nc2ccc(Cl)cc21` [(Z)-N'-(5-chloro-2-oxoindolin-3-ylidene)-2-((2-oxo-2H-chromen-7-yl)oxy)acetohydrazide (5e)] yielded a 50% inhibitory concentration (IC50) of 153 µM. In turn, `O=C(COc1ccc2ccc(=O)oc2c1)N/N=C1\C(=O)Nc2ccc(F)cc21` [(Z)-N'-(5-fluoro-2-oxoindolin-3-ylidene)-2-((2-oxo-2H-chromen-7-yl)oxy)acetohydrazide (5d)] had a concentration for half-maximal inhibition (IC50) of 12 µM. Consider `CN1C(=O)/C(=N\NC(=O)COc2ccc3ccc(=O)oc3c2)c2ccccc21` [(Z)-N'-(1-methyl-2-oxoindolin-3-ylidene)-2-((2-oxo-2H-chromen-7-yl)oxy)acetohydrazide (5h)], for which the midpoint of inhibition, the IC50, lay at 269 µM.

`O=C(COc1ccc2ccc(=O)oc2c1)N/N=C1\C(=O)N(Cc2ccc(Br)cc2)c2ccc(Br)cc21` [(Z)-N'-(5-bromo-1-(4-bromobenzyl)-2-oxoindolin-3-ylidene)-2-((2-oxo-2H-chromen-7-yl)oxy)acetohydrazide (5t)] gave a concentration for half-maximal inhibition (IC50) of 3.98 µM.

For the compound `O=C(COc1ccc2ccc(=O)oc2c1)N/N=C1\C(=O)N(Cc2ccccc2Cl)c2ccccc21` [(Z)-N'-(1-(2-chlorobenzyl)-2-oxoindolin-3-ylidene)-2-((2-oxo-2H-chromen-7-yl)oxy)acetohydrazide (5l)], the IC50 came to 7.31 µM.

As to `O=C(COc1ccc2ccc(=O)oc2c1)N/N=C1\C(=O)Nc2ccc(Br)cc21` [(Z)-N'-(5-bromo-2-oxoindolin-3-ylidene)-2-((2-oxo-2H-chromen-7-yl)oxy)acetohydrazide (5f)], the IC50 was determined as 14.2 µM.

In general, IC50 refers to the concentration that inhibits the measured activity by half. Read a high IC50 as lower potency.

These data come from BindingDB's records for doi:10.1111/cbdd.12867 (Jishou University, 2017).
